Patent publication US9957246B2, “Prodrugs of tetrahydrocannabinol, compositions comprising prodrugs of tetrahydrocannabinol and methods of using the same” (Zynerba Pharmaceuticals, Inc., priority 2007, dated 2018)

Key:
[1] = Plasma stability of prodrugs (bioconversion to parent drug); format: in vitro ADME
Protocol: Approximately 1 mg/mL of stock solution of each prodrug was prepared in 100 μL of ethanol and 900 μL of acetonitrile. Next, 10 μL of stock was spiked into 1 mL of plasma and vortexed. The samples were kept sealed in an amber vial and samples were obtained to analyze for bioconversion to parent drug.
An approximated 1 mg/mL stock solution of each prodrug was prepared in 100 μL of ethanol and 900 μL of acetonitrile. Next, 10 μL of stock was spiked into 1 mL of plasma and vortexed. The samples were kept sealed in an amber vial and samples were obtained to analyze for bioconversion to parent drug.
Approximately 1 mg/mL of stock solution of each prodrug was prepared in 100 μL of ethanol and 900 μL of acetonitrile. Ten μL of stock was spiked into 1 mL of plasma and vortexed. The samples were kept sealed in an amber vial and samples were obtained to analyze for bioconversion to parent drug.

[2] = In vitro human skin permeation, flow-through diffusion cells
[3] = Table 17, 90:8:2 PG:H2O:IPM donor solution, analyte: THC or intact prodrug as applied
[4] = Table 17, 90:8:2 PG:H2O:IPM donor solution, total THC equivalents (THC and/or prodrug)
[5] = Table 7, 2.36:1.18:1 PG:ethanol:H2O donor solution, analyte: THC or intact prodrug as applied
[6] = Table 8, gel formulation, analyte: THC or intact prodrug as applied
[7] = Table 18, 90:8:2 PG:H2O:IPM donor solution, analyte: THC or intact prodrug as applied

Row | Compound | % Prodrug at time (h) ([1]; Table 15, 0.1 h) | % Prodrug at time (h) ([1]; Table 15, 1 h) | % Prodrug at time (h) ([1]; Table 15, 2.5 h) | % Prodrug at time (h) ([1]; Table 15, 3.5 h) | 24 h cumulative amt [2, 3] | 24 h skin conc [2, 3] | Flux [2, 3] | Lag time [2, 3] | % Prodrug at time (h) ([1]; Table 11, 0.1 h) | % Prodrug at time (h) ([1]; Table 11, 1 h) | % Prodrug at time (h) ([1]; Table 11, 22 h) | % Prodrug at time (h) ([1]; Table 11, 24 h) | % Prodrug at time (h) ([1]; Table 11, 42 h) | other results
1 | CCCCCc1cc(OC(=O)COCCOCCOCCOC)c2c(c1)OC(C)(C)[C@@H]1CCC(C)=C[C@@H]21 [ALL00117, Δ^9-Tetrahydrocannabinol 3,6,9,12-tetraoxatridecanoyl ester] | 100% | 35% | 7% | 5% | 3.0 ± 0.3 nmol | 7.3 ± 1.8 µmol/g | 0.4 ± 0.1 nmol/cm^2/h | 15.1 ± 0.2 h |  |  |  |  |  | 24 h skin conc ([2]; Table 2, 100% PG donor solution, analyte: THC from prodrug): 1.1 ± 0.0 µmol/g; 24 h skin conc ([2]; Table 2, 100% PG donor solution, analyte: THC or intact prodrug (PD)): 8.9 ± 7.1 µmol/g; 24 h cumulative amt ([2]; Table 4, gel formulation): 1.7 ± 0.0 nmol; Flux ([2]; Table 4, gel formulation): 0.07 ± 0.00 nmol/cm^2/h; 24 h skin conc ([2]; Table 4, gel formulation, analyte: THC from prodrug): 0.7 ± 0.1 µmol/g; 24 h skin conc ([2]; Table 4, gel formulation, analyte: THC or intact prodrug (PD)): 13.8 ± 4.1 µmol/g; 24 h cumulative amt ([2]; Table 17, 90:8:2 PG:H2O:IPM donor solution, analyte: THC from prodrug): 0.7 ± 0.7 nmol; Flux enhancement ([2]; Table 17, 90:8:2 PG:H2O:IPM donor solution, total THC equivalents): 0.45; 24 h cumulative amt [2, 4]: 3.7 ± 1.0 nmol; 24 h skin conc [2, 4]: 7.3 ± 1.8 µmol/g; Flux [2, 4]: 0.5 ± 0.1 nmol/cm^2/h; Lag time [2, 4]: 15.4 ± 0.3 h
2 | CCCCCc1cc(OC(=O)CN(C)C=O)c2c(c1)OC(C)(C)[C@@H]1CCC(C)=C[C@@H]21 [ALL00121, Δ^9-Tetrahydrocannabinol N-formylsarcosyl ester] |  |  |  |  |  |  |  |  | 100% | 50% | 10% | 14% | 0% | 24 h cumulative amt [2, 5]: 18.5 ± 5.6 nmol; 24 h skin conc [2, 5]: 72.3 ± 54.0 µmol/g; Flux [2, 5]: 1.2 ± 0.3 nmol/cm^2/h; Lag time [2, 5]: 8.3 ± 0.5 h; 24 h cumulative amt [2, 6]: 8.8 ± 0.1 nmol; 24 h skin conc [2, 6]: 33.2 ± 7.2 µmol/g; Flux [2, 6]: 0.38 ± 0.03 nmol/cm^2/h; Lag time [2, 6]: 1.4 ± 0.0 h
3 | CCCCCc1cc(OC(=O)OC[C@@H](O)CO)c2c(c1)OC(C)(C)[C@@H]1CCC(C)=C[C@@H]21 [ALL00138, Δ^9-Tetrahydrocannabinol (S)-2,3-dihydroxypropyl carbonate] | 30% |  |  |  |  |  |  |  |  |  |  |  |  | % Prodrug at time (h) ([1]; Table 15, 0.5 h): 0%; 24 h cumulative amt [2, 7]: 18.2 ± 1.4 nmol; 24 h skin conc [2, 7]: 7.2 ± 4.8 µmol/g; Flux [2, 7]: 1.0 ± 0.0 nmol/cm^2/h; Lag time [2, 7]: 5.9 ± 1.4 h
4 | CCCCCc1cc(OC(=O)OC[C@H](O)CO)c2c(c1)OC(C)(C)[C@@H]1CCC(C)=C[C@@H]21 [ALL00126, Δ^9-Tetrahydrocannabinol (R)-2,3-dihydroxypropyl carbonate] | 100% | 3% | 1% | 1% | 69.7 ± 10.7 nmol | 17.8 ± 4.8 µmol/g | 5.7 ± 0.0 nmol/cm^2/h | 10.8 ± 2.1 h |  |  |  |  |  | 
5 | CCCCCc1cc(OC(=O)OCCCCN)c2c(c1)OC(C)(C)[C@@H]1CCC(C)=C[C@@H]21 [ALL00127, Δ^9-Tetrahydrocannabinol 4-aminobutyl carbonate] | 100% | 100% | 91% | 85% |  |  |  |  |  |  |  |  |  | 
6 | CCCCCc1cc(OC(=O)OCCOCCOCCOCCOC)c2c(c1)OC(C)(C)[C@@H]1CCC(C)=C[C@@H]21 [ALL00119, Δ^9-Tetrahydrocannabinol 3,6,9,12-tetraoxatridecyl carbonate] |  |  |  |  |  |  |  |  | 100% | 82% | 64% | 51% | 0% | 24 h skin conc ([2]; Table 9, 2.36:1.18:1 pH = 5.5 PG:ethanol:H2O donor solution, analyte: THC or intact prodrug as applied): 13.6 ± 7.5 µmol/g; 24 h skin conc ([2]; Table 9, 2.36:1.18:1 pH = 5.5 PG:ethanol:H2O donor solution, total THC equivalents (THC and/or prodrug)): 13.6 ± 7.5 µmol/g
